Experimental data from patent US7923440B2, “Method of treating or preventing immune mediated disorders and pharmaceutical formulation for use therein” (Pantarhei Bioscience B.V., priority 2002, dated 2011).
Like-named read-outs stand apart in the source and are kept apart here.

Assays:
[1] = target: T1, human sex Hormone Binding Globulin (SHBG) (Homo sapiens, UniProt P04278); test: Competitive steroid-binding assay for SHBG
T1 construct: made in house; host or cells: transgenic mouse (serum)
T1 sequence (P04278 30-402): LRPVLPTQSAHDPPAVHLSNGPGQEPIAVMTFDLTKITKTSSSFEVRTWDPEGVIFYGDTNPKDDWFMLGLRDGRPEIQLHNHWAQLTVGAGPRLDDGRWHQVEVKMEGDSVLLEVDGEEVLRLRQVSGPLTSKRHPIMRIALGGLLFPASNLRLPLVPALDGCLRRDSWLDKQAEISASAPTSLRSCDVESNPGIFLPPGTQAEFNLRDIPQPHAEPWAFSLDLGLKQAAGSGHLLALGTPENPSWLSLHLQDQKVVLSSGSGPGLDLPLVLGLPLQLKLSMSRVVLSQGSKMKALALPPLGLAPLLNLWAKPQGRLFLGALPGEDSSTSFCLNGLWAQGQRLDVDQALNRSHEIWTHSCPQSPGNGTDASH
Experimental: Human SHBG was treated for 30 min at room temperature with a dextran-coated charcoal (DCC) suspension in phosphate buffered saline (PBS) to remove any steroid ligand. After centrifugation (2,000×g for 10 min) to sediment the DCC, the supernatant containing the human SHBG was diluted in PBS to a concentration of 1 nM based on its steroid binding capacity.
The average amounts of [^3H]labeled ligands bound to SHBG at each concentration of competitor (B) were expressed as a percentage of the average amounts of [^3H]labeled ligands bound to SHBG in the absence of competitor (B0), and were plotted against the concentration of competitor in each assay tube.

immature rat uterus = details: subcutaneously administered, cited from earlier work

Which “binding to human SHBG” value ([1]; [3H]DHT as labeled ligand) does the source give for `C[C@]12CC[C@@H]3c4ccc(O)cc4CC[C@H]3[C@@H]1[C@@H](O)[C@@H](O)[C@@H]2O` [E4, 1,3,5 (10)-estratrien-3,15α,16α,17β-tetrol] here?
The value was “does not bind at all”.

And the “binding to human SHBG” value ([1]; [3H]estradiol as labeled ligand)?
Its value is “does not bind at all”.

And the “relative binding affinity for human SHBG” value ([1]; comparison among tested steroids, order ethinylestradiol, 17β-estradiol, testosterone, 5α-dihydrotestosterone)?
Its value is “negligible”.

What about the uterotrophic activity (immature rat uterus; Holinka et al. 1979) of the same molecule?
Its uterotrophic activity is “very weak uterotrophic activity”.

What about the uterotrophic activity (immature rat uterus; Holinka et al. 1980) of the same molecule?
The uterotrophic activity was “very weak uterotrophic activity”.
